The source of these data is ChEMBL document CHEMBL1201862, “PubChem BioAssay data set” (2004).

Calls of active or inactive are those of the source. A value given as a limit tells only on which side of the number the result lay.

The target in assay [1] is Luciferin 4-monooxygenase (Photinus pyralis, UniProt P08659). Kind of assay: inhibition of purified Photinus pyralis luciferase – biochemical, luminescence, dose response (AID 1891).
A short description of assay [2]: Luminescence Cell-Based Dose Confirmation HTS to Identify Inhibitors of Platelet Dense Granule Release. [Related pubchem assays: 1663 (Primary HTS), 1678 (Summary of Project)]. The format is functional.
Assay [3] concerns the target T1, Heat shock factor protein 1 (Mus musculus, UniProt P38532).
T1 sequence (P38532 whole entry): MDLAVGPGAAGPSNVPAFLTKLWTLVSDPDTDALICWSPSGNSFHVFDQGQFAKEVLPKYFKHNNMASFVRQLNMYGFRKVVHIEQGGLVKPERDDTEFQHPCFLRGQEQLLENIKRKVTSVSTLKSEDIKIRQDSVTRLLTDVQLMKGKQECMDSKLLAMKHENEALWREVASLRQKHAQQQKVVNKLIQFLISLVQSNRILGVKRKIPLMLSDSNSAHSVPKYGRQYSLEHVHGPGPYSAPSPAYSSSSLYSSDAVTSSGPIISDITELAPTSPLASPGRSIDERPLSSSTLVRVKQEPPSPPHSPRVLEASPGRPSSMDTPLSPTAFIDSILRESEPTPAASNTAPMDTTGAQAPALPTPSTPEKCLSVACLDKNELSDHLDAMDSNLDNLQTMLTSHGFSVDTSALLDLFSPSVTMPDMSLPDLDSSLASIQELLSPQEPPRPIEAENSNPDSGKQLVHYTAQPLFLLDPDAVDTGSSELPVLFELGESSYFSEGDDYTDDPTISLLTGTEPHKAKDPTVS
The experiment in a line: decrease of HSF1-responsive luciferase luminescence – cell-based, NIH3T3, dose retest, confirmation (AID 2382).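 Also: NIH3T3 fibroblasts with HSF1-driven luciferase reporter stressed by proteasome inhibitor MG132; luminescence from HSF1-driven luciferase expression after 8 hours of MG132 stress.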 The class given is functional.

In assay [4] the target is Cytochrome P450 2C19 (Homo sapiens, UniProt P33261). Kind of assay: Cytochrome panel assay with activity outcomes. Panel member name: p450-cyp2c19 Compounds with AC50 equal or less than 10 uM are considered active. Conditions: read-out: AC50. The class given is functional.
Assay [5] concerns the target Cytochrome P450 2D6 (Homo sapiens, UniProt P10635).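 Also: CYP2D6 member of a cytochrome P450 panel assay.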
Assay [6] addresses Cytochrome P450 3A4 (Homo sapiens, UniProt P08684).
Assay [7] concerns the target Cytochrome P450 2C9 (Homo sapiens, UniProt P11712).
The nature of assay [8]: cells. The format is functional, cell-based.
Assay [9] in a line: cells. The format is functional, cell-based. The source holds these as a separate data set.
In assay [10] the target is T2, Cytochrome P450 1A2 (Homo sapiens, UniProt P05177).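 Also: PubChem cytochrome P450 panel assay, CYP1A2 panel member.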
T2 sequence (P05177 whole entry): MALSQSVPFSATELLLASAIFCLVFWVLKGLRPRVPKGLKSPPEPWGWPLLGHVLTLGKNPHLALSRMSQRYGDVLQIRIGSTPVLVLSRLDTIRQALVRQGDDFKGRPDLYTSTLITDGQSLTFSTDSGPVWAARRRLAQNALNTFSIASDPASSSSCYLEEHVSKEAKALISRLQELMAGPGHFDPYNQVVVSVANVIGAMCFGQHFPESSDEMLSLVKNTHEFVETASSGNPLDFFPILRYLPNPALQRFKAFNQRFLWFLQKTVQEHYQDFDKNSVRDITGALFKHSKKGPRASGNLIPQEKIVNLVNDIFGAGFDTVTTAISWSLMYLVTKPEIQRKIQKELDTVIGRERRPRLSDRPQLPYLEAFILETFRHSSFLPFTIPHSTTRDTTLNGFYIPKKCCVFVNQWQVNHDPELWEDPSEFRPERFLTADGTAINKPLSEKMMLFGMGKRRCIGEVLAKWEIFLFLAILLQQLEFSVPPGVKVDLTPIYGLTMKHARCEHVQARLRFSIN

The test system of assay [11] is INS1. Kind of assay: INS-1E survival protection against cytokine death – cell-based, luminescence, retest, dose response (AID 449756).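 Also: cell death triggered by IL-1 beta plus TNF-alpha plus IFN-gamma mixture; protective hits raise ATP signal compared with cytokine alone wells.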 The class given is functional. Conditions: Rattus norvegicus, INS1.
The nature of assay [12]: luciferase reporter signal suppression in cells – H4 neuroglioma cells, luminescence, dose response (AID 1990). The class given is functional, cell-based.
Assay [13] can be described thus: Luminescence Cell-Based Dose Response HTS to Identify Inhibitors of 5'UTR Stem-Loop Driven Prion Protein mRNA Translation in H4 Neuroglioblastoma Cells. [Related pubchem assays: 1827 (Project Summary), 1813 (Primary HTS)]. The format is functional.
Assay [14] is described as follows: alpha-synuclein stem-loop luciferase translation blockers – H4 neuroglioma cells, luminescence, confirmation (AID 1988). The format is functional, cell-based.
In assay [15] the target is T1, Heat shock factor protein 1. Kind of assay: enhancement of HSF1-driven luciferase signal – cell-based, NIH3T3, luminescence, dose retest, confirmation (AID 435004).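 Also: stress induced by proteasome inhibitor MG132 added 30 min after compound; luciferase reporter driven by HSF1 response element in NIH3T3 cells; actives raise luminescence as potentiators of the MG132 stress response.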 The class given is functional.

Cytochrome P450 2C19, sequence (P33261 whole entry): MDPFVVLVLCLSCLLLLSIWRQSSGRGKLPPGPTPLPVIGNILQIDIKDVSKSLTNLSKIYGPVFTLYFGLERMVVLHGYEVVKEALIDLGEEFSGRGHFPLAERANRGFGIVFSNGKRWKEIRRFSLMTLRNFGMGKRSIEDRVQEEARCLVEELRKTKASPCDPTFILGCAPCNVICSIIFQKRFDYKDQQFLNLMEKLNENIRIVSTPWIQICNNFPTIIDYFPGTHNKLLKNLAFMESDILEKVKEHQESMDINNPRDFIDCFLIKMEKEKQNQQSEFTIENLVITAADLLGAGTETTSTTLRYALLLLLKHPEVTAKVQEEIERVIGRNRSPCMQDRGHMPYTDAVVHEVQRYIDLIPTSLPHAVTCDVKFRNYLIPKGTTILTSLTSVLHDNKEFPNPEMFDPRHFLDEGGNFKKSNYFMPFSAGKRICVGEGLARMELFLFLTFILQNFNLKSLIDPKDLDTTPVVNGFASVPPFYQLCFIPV
Cytochrome P450 2D6, sequence (P10635 whole entry): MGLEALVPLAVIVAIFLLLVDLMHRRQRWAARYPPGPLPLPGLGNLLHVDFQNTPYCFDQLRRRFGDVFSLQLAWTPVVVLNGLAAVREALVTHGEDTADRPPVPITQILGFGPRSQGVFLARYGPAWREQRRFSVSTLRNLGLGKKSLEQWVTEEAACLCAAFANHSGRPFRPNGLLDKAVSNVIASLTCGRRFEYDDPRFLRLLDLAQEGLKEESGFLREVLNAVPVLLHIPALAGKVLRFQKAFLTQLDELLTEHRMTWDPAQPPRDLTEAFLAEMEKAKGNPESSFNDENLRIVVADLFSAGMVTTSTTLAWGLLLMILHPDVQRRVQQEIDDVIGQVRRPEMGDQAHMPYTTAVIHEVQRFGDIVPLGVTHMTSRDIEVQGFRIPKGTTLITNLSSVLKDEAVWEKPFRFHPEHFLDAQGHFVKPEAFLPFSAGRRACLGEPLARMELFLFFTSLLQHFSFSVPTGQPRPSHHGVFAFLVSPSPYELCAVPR
Cytochrome P450 3A4, sequence (P08684 whole entry): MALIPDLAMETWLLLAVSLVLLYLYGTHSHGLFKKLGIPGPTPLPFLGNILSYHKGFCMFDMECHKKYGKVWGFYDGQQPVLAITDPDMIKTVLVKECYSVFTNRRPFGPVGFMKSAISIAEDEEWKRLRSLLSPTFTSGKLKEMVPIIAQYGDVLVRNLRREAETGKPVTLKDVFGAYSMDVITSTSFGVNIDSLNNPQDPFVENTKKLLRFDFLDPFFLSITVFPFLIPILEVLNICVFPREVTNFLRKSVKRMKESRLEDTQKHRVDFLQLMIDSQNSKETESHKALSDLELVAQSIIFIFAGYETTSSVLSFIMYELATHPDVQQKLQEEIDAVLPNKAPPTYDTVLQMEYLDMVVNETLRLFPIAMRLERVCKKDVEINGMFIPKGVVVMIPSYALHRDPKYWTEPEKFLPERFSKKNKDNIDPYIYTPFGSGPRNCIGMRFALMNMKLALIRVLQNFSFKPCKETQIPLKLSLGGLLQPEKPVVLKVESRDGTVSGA
Cytochrome P450 2C9, sequence (P11712 whole entry): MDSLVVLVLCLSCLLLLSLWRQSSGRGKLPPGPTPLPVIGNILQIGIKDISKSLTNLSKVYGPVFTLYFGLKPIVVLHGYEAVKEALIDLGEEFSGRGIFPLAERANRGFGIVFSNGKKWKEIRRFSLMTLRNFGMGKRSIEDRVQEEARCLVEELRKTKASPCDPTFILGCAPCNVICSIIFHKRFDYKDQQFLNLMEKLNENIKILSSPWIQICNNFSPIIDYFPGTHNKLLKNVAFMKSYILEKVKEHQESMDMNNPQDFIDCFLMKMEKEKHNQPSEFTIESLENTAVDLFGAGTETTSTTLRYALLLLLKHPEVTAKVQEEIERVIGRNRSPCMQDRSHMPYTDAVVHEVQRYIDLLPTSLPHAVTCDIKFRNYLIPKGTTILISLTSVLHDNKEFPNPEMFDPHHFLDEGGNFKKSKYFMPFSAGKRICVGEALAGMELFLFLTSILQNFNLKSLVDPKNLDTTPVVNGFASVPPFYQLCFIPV
Luciferin 4-monooxygenase, sequence (P08659 whole entry): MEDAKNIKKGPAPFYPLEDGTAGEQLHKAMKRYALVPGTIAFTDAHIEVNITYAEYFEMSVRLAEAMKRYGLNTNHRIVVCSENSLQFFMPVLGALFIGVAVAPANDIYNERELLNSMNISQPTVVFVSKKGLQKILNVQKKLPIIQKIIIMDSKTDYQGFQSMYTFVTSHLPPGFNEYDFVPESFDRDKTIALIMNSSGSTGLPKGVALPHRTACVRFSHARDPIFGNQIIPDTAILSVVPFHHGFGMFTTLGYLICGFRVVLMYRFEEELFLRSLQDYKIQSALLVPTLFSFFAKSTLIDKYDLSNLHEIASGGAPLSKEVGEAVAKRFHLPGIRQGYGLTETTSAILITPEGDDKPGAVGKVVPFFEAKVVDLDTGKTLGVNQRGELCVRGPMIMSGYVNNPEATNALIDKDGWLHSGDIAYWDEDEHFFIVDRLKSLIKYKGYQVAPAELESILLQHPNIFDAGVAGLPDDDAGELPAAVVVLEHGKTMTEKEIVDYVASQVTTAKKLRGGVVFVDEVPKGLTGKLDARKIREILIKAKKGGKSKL

Turning to `Cc1ccc(CNC(=O)c2cnc3ccccc3n2)cc1`, the half-maximal effective concentration (EC50) in assay [1] and in [2] was > 112 µM (not active) each time.

With `CC(C)CCNC(=O)Cn1cc2c(n1)CCCCC2`, in assay [3], the EC50 is > 195 µM (not active).

As for `OCC[C@@H]1C[C@@H](O)[C@H](O)[C@@]2(Cc3ccccc3CO2)O1`, the EC50 in [3] is on record as > 195 µM (not active).

`Cc1ccc([N+](=O)[O-])cc1NC(=O)CSc1n[nH]c(-c2cccnc2)n1`: the EC50 in assay [3] is > 195 µM (not active).

Consider `O=C(c1ccco1)N1CCC[C@@]2(CCN(Cc3nccs3)C2)C1`, for which the figures for the AC50 in assay [4], in [5] and in assay [6] were 39.8 µM (inconclusive), 10 µM (inconclusive) and 7.94 µM (inconclusive), respectively.

Regarding `Cc1noc(COc2ccc(OCc3nc(C)no3)cc2)n1`, the AC50 in assay [4] is 17.8 µM (inconclusive); in assay [7], 39.8 µM (inconclusive).

For the molecule `CCCC(C)NC(=O)CN1C(=O)NC2(CCc3ccccc32)C1=O` (centres undefined), the half-maximal effective concentration (EC50) in assay [8] and in [9] was > 350 µM (not active) throughout.

In the case of `Cc1ccc(C(OC(=O)c2ccco2)C(=O)NC2CCCCC2)cc1` (centres undefined), the AC50 in [7] is 39.8 µM (inconclusive).

Take `COCCn1c(=O)c(-c2cccc(C#N)c2)nc2cnc(N3CCN(C)CC3)nc21`: the AC50 in [10] is 15.8 µM (inconclusive); in [7], 3.98 µM (inconclusive).

As for `c1cc(CNCCCN2CCOCC2)ccn1`, the results for the concentration at half-maximal activity (AC50) in assay [5] and in assay [6] were 15.8 µM (inconclusive) and 31.6 µM (inconclusive), respectively.

As for `CCn1c(N2CCC(Cc3ccccc3)CC2)nc2c1c(=O)[nH]c(=O)n2C`, the concentration giving a half-maximal response (EC50) in assay [8] and in [9] was > 350 µM (not active) each time.

With `CCOC(=O)C1CCN(Cc2cnc(Oc3ccc(OC)cc3)s2)CC1`, the half-maximal activity concentration (AC50) in assay [5] is 22.4 µM (inconclusive).

In the case of `CCCCN(CC)C(=O)Cc1ccccc1OC`, the half-maximal activity concentration (AC50) in assay [5] was 28.2 µM (inconclusive).

As for `Cc1ccc(-c2cc(C(=O)Nc3cccnc3)[nH]n2)c(O)c1C`, the values for the EC50 in assay [8] and in assay [9] were > 350 µM (not active) and 7.01 µM (active), respectively.

Turning to `Cc1cc2nc(-c3ccc(NC(=O)c4cccnc4)cc3)oc2cc1C`, the EC50 in assay [1] and in [2] was > 112 µM (not active) throughout. Further, the half-maximal activity concentration (AC50) in assay [11] is 3.87 µM (active).

In the case of `CN(Cc1ccco1)c1ccnc(-c2cccc(C#N)c2)n1`, the AC50 in assay [5] is 20 µM (inconclusive).

On to `Cc1cc(NC(=O)COc2ccc(Cl)cc2Cl)n(-c2ccccc2)n1`, for which, in assay [5], the AC50 was 7.08 µM (inconclusive).

Take `COc1ccc(/C=C2\CCc3c2nc2ccccc2c3C(=O)O)cc1OC`: the concentration for a half-maximal effect (EC50) is 6.42 µM (active) in assay [1] and 73.5 µM (active) in assay [2].

Turning to `COc1ccc(CN2CCN(S(=O)(=O)c3ccccc3)CC2)cc1Br`, the EC50 in assay [12] is given as > 120 µM (not active); in assay [13], > 120 µM (not active); in assay [3], > 195 µM (not active); in assay [14] it was > 120 µM (not active).

`CCOC(=O)N1CCC(Nc2ncnc3c2cnn3-c2ccc(Cl)cc2)CC1`: the EC50 in [3] is 89.4 µM (active).

For `CC1=NN(C(N)=S)C(C)(C)C1`, the EC50 in assay [3] is > 195 µM (not active).

For the molecule `CCS(=O)(=O)c1ccc2c(c1)N(S(C)(=O)=O)CC(C(=O)NCCOC)O2` (centres undefined), the AC50 in assay [7] is 35.5 µM (inconclusive).

`CCc1ccccc1N(CC(=O)N/N=C/c1ccc(OC(=O)OC)c(OC)c1)S(C)(=O)=O`: the figures for the half-maximal effective concentration (EC50) in assay [1] and in assay [2] were > 112 µM (not active) and 43.7 µM (active), respectively.

In the case of `Cc1cc(C)c(C(=O)N2CCCC(N3CCN(c4cccc(C(F)(F)F)c4)CC3)C2)o1` (centres undefined), the EC50 in assay [8] and in assay [9] was > 350 µM (not active) each time.

As to `O=C(N/N=C/c1ccc2c(c1)OCO2)/C(=C/c1ccc2c(c1)OCO2)NC(=O)c1ccccc1`, the half-maximal activity concentration (AC50) in assay [7] is 12.6 µM (inconclusive).

For `Cc1ccc(S(=O)(=O)Nc2cccnc2)c(C)c1C`, in assay [3], the EC50 is listed as > 195 µM (not active).

Regarding `Cc1c(O)ccc(/C=N/Nc2ncccc2[N+](=O)[O-])c1O`, the concentration for a half-maximal effect (EC50) in assay [1] is 0.176 µM (active); in assay [2], 1.12 µM (active); in [15], > 260 µM (inconclusive).

Take `Cc1ccc(N2C(=O)/C(=C/N3CCN(C(=O)c4ccco4)CC3)C(=O)NC2=S)cc1C`: the half-maximal activity concentration (AC50) in assay [4] was 39.8 µM (inconclusive); in [6] it was 25.1 µM (inconclusive); in assay [7] it was 20 µM (inconclusive).

With `COC(=O)[C@@]1(Cc2ccc(F)cc2)[C@H]2c3cc(C(=O)N4CCCC4)n(Cc4ccc(C)o4)c3C[C@H]2CN1C(=O)c1ccccc1`, the AC50 is 39.8 µM (inconclusive) in assay [5] and 10 µM (inconclusive) in assay [10].

As for `Cc1onc(-c2c(F)cccc2Cl)c1C(=O)NCC1COc2ccccc2O1` (centres undefined), the EC50 in assay [1] and in [2] was > 112 µM (not active) throughout.

Take `CN1CCN(c2nc(-c3cccc(C#N)c3)nc3ccccc23)CC1`: the AC50 in assay [5] is 12.6 µM (inconclusive).

As to `COc1ccc(Oc2ncc3nc(-c4ccc(F)cc4)c(=O)n(Cc4cccs4)c3n2)cc1`, the AC50 in assay [10] was 5.01 µM (inconclusive); in assay [7] it was 3.16 µM (inconclusive).

Consider `CCC(Cc1ccccc1)NS(=O)(=O)c1c(C)nc2sccn2c1=O` (centres undefined), for which the concentration for a half-maximal effect (EC50) in assay [1] and in assay [2] was > 112 µM (not active) each time.

With `C=CCn1c2ccccc2c2nnc(SCC(=O)O)nc21`, the EC50 in assay [3] was > 195 µM (not active).

On to `COc1ncc2nc(CCc3ccccc3)c(=O)n(Cc3cccs3)c2n1`, for which the concentration at half-maximal activity (AC50) in assay [5] is 12.6 µM (inconclusive).

For `CN(C)c1ccc(/C=C2/C(=O)Nc3ccccc32)cc1`, in [7], the AC50 was 39.8 µM (inconclusive).

On to `COC(=O)Cc1ccc(NC(S)=NC(C)(C)C)cc1`, for which the EC50 in [8] and in assay [9] was > 350 µM (not active) throughout.

Take `Cc1cc(C(=O)NCc2ccccc2)no1`: the AC50 in assay [4] is 28.2 µM (inconclusive); in assay [5], 20 µM (inconclusive); in assay [10] it was 0.398 µM (inconclusive).

On to `CC(=O)c1ccc(NC(=O)Nc2ccc([N+](=O)[O-])cc2C)cc1`, for which the concentration for a half-maximal effect (EC50) in [1] and in assay [2] was > 112 µM (not active) throughout.

In the case of `Cc1noc(C)c1-c1nc(NCCN2CCOCC2)c2ccccc2n1`, in [5], the concentration at half-maximal activity (AC50) is 25.1 µM (inconclusive).

As for `COc1cccc(N2C(=O)N(c3ccccc3)C3CS(=O)(=O)CC32)c1` (centres undefined), the concentration for a half-maximal effect (EC50) in assay [3] is given as > 195 µM (not active).

As for `COc1ccc(-n2c(-c3cccc(OC)c3)nc(=S)c3c2CCCC3)cc1`, the EC50 in assay [3] was > 195 µM (not active).

In the case of `O=C(CSc1nnnn1C1CCCC1)Nc1ccc(F)cc1`, the values for the concentration at half-maximal activity (AC50) in assay [10] and in assay [7] were 25.1 µM (inconclusive) and 31.6 µM (inconclusive), respectively.

Consider `Cc1cccc(C)c1NC(=O)C[S+]([O-])CC(=O)NCCCc1ccccc1` (centres undefined), for which the AC50 in assay [6] is 14.1 µM (inconclusive); in [7], 22.4 µM (inconclusive).

In the case of `Fc1ccc(Nc2ccnc(-c3ccccc3C(F)(F)F)n2)cc1`, the half-maximal activity concentration (AC50) in [5] was 39.8 µM (inconclusive).

`C/C(=N\Nc1nc(-c2ccccc2)cs1)c1cccs1`: the EC50 in assay [3] was > 195 µM (not active).

Turning to `Cc1cccc(Oc2nc3ccccn3c(=O)c2/C=C(\C#N)C(=O)NC2CCS(=O)(=O)C2)c1C` (centres undefined), the EC50 in [1] was > 112 µM (not active); in [2], 4.44 µM (active).

The term EC50 denotes the concentration needed to bring the measured effect to its halfway point. Broadly, the AC50 is the midpoint of the concentration-response curve, whichever way the signal moves.
